# Tests used:
# [1] = target: T1, Ephrin type-B receptor 2 (Homo sapiens) (UniProt P29323); assay: Inhibition of human recombinant EphB2 at 500 nM in presence of ATP by radiometric assay relative to control
# T1 sequence (whole entry): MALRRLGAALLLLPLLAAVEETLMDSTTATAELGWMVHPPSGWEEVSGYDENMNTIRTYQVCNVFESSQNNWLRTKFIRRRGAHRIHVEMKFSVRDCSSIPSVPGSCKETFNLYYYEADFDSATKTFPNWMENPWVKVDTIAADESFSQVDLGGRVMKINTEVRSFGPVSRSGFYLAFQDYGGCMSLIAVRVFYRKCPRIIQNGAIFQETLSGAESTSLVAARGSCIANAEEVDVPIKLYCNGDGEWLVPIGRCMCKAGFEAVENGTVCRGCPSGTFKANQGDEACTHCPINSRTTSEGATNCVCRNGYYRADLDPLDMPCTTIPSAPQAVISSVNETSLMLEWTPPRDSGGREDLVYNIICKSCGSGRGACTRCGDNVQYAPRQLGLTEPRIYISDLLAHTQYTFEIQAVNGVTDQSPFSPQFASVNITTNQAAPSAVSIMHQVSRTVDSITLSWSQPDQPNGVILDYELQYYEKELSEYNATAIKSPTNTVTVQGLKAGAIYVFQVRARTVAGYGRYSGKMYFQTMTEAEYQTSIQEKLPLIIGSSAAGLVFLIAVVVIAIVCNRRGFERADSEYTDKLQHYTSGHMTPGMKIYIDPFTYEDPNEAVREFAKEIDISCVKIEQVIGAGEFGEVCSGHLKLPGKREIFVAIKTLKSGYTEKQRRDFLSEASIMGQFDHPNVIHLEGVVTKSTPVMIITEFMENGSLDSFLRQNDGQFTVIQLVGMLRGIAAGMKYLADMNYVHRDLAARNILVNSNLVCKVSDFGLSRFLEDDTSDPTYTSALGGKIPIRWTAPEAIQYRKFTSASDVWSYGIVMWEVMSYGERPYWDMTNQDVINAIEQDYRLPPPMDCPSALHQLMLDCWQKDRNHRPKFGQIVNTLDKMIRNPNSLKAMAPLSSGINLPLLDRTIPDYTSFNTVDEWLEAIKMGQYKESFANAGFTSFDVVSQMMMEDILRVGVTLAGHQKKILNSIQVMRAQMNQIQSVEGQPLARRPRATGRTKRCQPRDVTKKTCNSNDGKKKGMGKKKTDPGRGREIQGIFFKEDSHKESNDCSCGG
# [2] = target: T2, MAP/microtubule affinity-regulating kinase 4 (Homo sapiens) (UniProt Q96L34); assay: Inhibition of human recombinant MARK4 at 500 nM in presence of ATP by radiometric assay relative to control
# T2 sequence (whole entry): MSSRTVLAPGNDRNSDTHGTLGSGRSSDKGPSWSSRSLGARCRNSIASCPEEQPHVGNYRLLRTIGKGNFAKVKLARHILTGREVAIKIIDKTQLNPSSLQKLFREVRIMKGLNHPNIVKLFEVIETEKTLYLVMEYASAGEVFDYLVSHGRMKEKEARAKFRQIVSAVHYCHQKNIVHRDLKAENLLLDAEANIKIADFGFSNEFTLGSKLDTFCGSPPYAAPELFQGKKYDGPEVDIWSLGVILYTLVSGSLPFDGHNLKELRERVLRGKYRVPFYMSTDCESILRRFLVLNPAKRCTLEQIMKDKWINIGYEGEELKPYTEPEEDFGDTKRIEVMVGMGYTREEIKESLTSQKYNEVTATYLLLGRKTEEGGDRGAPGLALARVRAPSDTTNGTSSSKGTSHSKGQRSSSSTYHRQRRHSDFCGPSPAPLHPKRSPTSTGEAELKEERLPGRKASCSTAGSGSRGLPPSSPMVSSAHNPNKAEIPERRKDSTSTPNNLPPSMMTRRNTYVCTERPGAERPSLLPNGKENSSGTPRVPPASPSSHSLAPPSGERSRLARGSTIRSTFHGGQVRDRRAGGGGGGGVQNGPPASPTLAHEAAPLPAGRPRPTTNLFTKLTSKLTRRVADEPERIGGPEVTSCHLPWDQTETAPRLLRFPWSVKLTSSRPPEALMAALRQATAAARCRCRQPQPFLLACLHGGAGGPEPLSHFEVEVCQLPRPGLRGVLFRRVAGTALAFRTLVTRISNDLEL
# [3] = target: T3, Serine/threonine-protein kinase Sgk3 (Homo sapiens) (UniProt Q96BR1); assay: Inhibition of human recombinant SGK3 at 500 nM related to control ULK1
# T3 sequence (whole entry): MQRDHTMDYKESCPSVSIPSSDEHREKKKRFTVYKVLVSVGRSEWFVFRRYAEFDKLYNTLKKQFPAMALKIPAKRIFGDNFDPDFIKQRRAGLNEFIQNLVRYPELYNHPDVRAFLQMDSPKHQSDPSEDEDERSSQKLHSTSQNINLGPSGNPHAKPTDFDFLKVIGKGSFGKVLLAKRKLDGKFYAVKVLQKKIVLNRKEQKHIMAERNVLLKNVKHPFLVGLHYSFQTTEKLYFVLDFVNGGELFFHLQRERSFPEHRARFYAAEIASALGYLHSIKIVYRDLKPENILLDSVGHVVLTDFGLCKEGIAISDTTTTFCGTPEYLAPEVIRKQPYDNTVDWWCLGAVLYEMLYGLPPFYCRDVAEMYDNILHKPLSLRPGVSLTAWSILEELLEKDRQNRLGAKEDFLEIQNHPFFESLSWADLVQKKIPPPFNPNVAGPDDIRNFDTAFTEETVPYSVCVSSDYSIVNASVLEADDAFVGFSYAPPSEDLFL
# [4] = target: T4, Dual specificity mitogen-activated protein kinase kinase 6 (Homo sapiens) (UniProt P52564); assay: Inhibition of human recombinant MAP2K6 at 40 nM related to control ULK1
# T4 sequence (whole entry): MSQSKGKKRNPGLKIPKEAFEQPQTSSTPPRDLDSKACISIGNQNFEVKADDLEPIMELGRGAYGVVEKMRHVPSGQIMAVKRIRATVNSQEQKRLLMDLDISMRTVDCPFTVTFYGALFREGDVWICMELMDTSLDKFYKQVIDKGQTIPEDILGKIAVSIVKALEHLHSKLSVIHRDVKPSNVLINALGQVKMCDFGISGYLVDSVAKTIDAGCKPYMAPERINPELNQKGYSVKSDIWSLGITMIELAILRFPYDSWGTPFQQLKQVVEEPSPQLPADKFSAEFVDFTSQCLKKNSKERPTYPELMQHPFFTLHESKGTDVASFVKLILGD
inhibition [1],inhibition [2],fold change (FC) [3],fold change (FC) [4],Compound
15%,58%,0.01,,CNC(=O)c1ccccc1Oc1nc(Nc2cc(OC)c(OC)c(OC)c2)ncc1Br
,,,0,O=C(N[C@@H](C1CC1)C(F)(F)F)c1cc(-c2cnn3cc(-c4ccc(F)cc4)cnc23)cs1

# — ChEMBL document CHEMBL5653631, “A Potent and Selective ULK1 Inhibitor Suppresses Autophagy and Sensitizes Cancer Cells to Nutrient Stress” (iScience, 2018)
